Measurements from the supplement of paper PMC6045584.
± gives the standard deviation of the averaged measurements.

Key:
Assay in all cases: surviving fraction relative to DMSO-only wells; higher = less growth inhibition
Conditions in all cases: exposure time: 5 days
BMN-673 = compound: Cn1ncnc1[C@H]1c2n[nH]c(=O)c3cc(F)cc(c23)N[C@@H]1c1ccc(F)cc1 [BMN-673]
Procedure, shortened: (§1)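 Continuous five-day exposure to inhibitors at 0.5, 1, 5, 10, 50, 100, 500 and 1000 nM started 24 hours after log-phase tumour cell lines were seeded at 250–500 cells per well in 384-well plates. Luminescence was read after 10 minutes at room temperature. Viability is given as surviving fraction, meaning CellTiter-Glo luminescence normalised to the median of DMSO-only wells.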

[1] = compound: C[C@@H]1CN(CC(=O)Nc2ccc3c(c2)Cc2cccc(-c4cc(=O)cc(N5CCOCC5)o4)c2S3)C[C@H](C)O1
Procedure, shortened: as §1

AFIMOXIFENE = compound: CC/C(=C(\c1ccc(O)cc1)c1ccc(OCCN(C)C)cc1)c1ccccc1 [AFIMOXIFENE]
Procedure, shortened: as §1

[2] = compound: CCc1cc(Nc2nccc(-c3c(-c4ccc(OC)c(C(=O)Nc5c(F)cccc5F)c4)nc4ccccn34)n2)c(OC)cc1N1CCC(N2CCN(S(C)(=O)=O)CC2)CC1
Procedure, shortened: as §1

[3] = compound: C[C@H](CN(C)C)Oc1nc(Nc2cc3cccc(Cl)c3cn2)cnc1C#N
Procedure, shortened: as §1

NILOTINIB = compound: Cc1cn(-c2cc(NC(=O)c3ccc(C)c(Nc4nccc(-c5cccnc5)n4)c3)cc(C(F)(F)F)c2)cn1 [NILOTINIB]
Procedure, shortened: as §1

CABOZANTINIB = compound: COc1cc2nccc(Oc3ccc(NC(=O)C4(C(=O)Nc5ccc(F)cc5)CC4)cc3)c2cc1OC [CABOZANTINIB]
Procedure, shortened: as §1

HS57T BREAST
surviving fraction (BMN-673; 0.5 nM): 1.04 ± 0.03
surviving fraction (BMN-673; 1 nM): 0.984 ± 0.037
surviving fraction (BMN-673; 5 nM): 1.04 ± 0.076
surviving fraction (BMN-673; 10 nM): 1.03 ± 0.076
surviving fraction (BMN-673; 50 nM): 0.969 ± 0.084
surviving fraction (BMN-673; 100 nM): 0.82 ± 0.074
surviving fraction (BMN-673; 500 nM): 0.619 ± 0.057
surviving fraction (BMN-673; 1000 nM): 0.513 ± 0.04
surviving fraction ([1]; 0.5 nM): 1.1 ± 0.058
surviving fraction ([1]; 1 nM): 1.05 ± 0.055
surviving fraction ([1]; 5 nM): 1.16 ± 0.017
surviving fraction ([1]; 10 nM): 1.1 ± 0.03
surviving fraction ([1]; 50 nM): 1.08 ± 0.042
surviving fraction ([1]; 100 nM): 1.08 ± 0.084
surviving fraction ([1]; 500 nM): 0.945 ± 0.069
surviving fraction ([1]; 1000 nM): 0.87 ± 0.041
surviving fraction (AFIMOXIFENE; 0.5 nM): 1.04 ± 0.086
surviving fraction (AFIMOXIFENE; 1 nM): 1.05 ± 0.088
surviving fraction (AFIMOXIFENE; 5 nM): 1.12 ± 0.062
surviving fraction (AFIMOXIFENE; 10 nM): 1.156 ± 0.011
surviving fraction (AFIMOXIFENE; 50 nM): 1.12 ± 0.071
surviving fraction (AFIMOXIFENE; 100 nM): 1.19 ± 0.044
surviving fraction (AFIMOXIFENE; 500 nM): 1.09 ± 0.038
surviving fraction (AFIMOXIFENE; 1000 nM): 1.08 ± 0.057
surviving fraction ([2]; 0.5 nM): 0.949 ± 0.082
surviving fraction ([2]; 1 nM): 1.01 ± 0.063
surviving fraction ([2]; 5 nM): 1.05 ± 0.021
surviving fraction ([2]; 10 nM): 1.05 ± 0.018
surviving fraction ([2]; 50 nM): 1.02 ± 0.052
surviving fraction ([2]; 100 nM): 1.06 ± 0.085
surviving fraction ([2]; 500 nM): 0.992 ± 0.036
surviving fraction ([2]; 1000 nM): 0.945 ± 0.024
surviving fraction ([3]; 0.5 nM): 0.943 ± 0.054
surviving fraction ([3]; 1 nM): 0.933 ± 0.048
surviving fraction ([3]; 5 nM): 1.04 ± 0.039
surviving fraction ([3]; 10 nM): 1.06 ± 0.041
surviving fraction ([3]; 50 nM): 1.03 ± 0.025
surviving fraction ([3]; 100 nM): 0.929 ± 0.057
surviving fraction ([3]; 500 nM): 0.119 ± 0.0095
surviving fraction ([3]; 1000 nM): 0.0913 ± 0.011
surviving fraction (NILOTINIB; 0.5 nM): 1.02 ± 0.12
surviving fraction (NILOTINIB; 1 nM): 1.05 ± 0.04
surviving fraction (NILOTINIB; 5 nM): 1.05 ± 0.066
surviving fraction (NILOTINIB; 10 nM): 1.06 ± 0.015
surviving fraction (NILOTINIB; 50 nM): 0.99 ± 0.038
surviving fraction (NILOTINIB; 100 nM): 1.08 ± 0.11
surviving fraction (NILOTINIB; 500 nM): 0.983 ± 0.03
surviving fraction (NILOTINIB; 1000 nM): 0.967 ± 0.064
surviving fraction (CABOZANTINIB; 0.5 nM): 0.884 ± 0.062
surviving fraction (CABOZANTINIB; 1 nM): 0.87 ± 0.07
surviving fraction (CABOZANTINIB; 5 nM): 0.961 ± 0.024
surviving fraction (CABOZANTINIB; 10 nM): 0.983 ± 0.04
surviving fraction (CABOZANTINIB; 50 nM): 1.01 ± 0.037
surviving fraction (CABOZANTINIB; 100 nM): 0.972 ± 0.078
surviving fraction (CABOZANTINIB; 500 nM): 0.894 ± 0.066
surviving fraction (CABOZANTINIB; 1000 nM): 0.888 ± 0.034
